LC50 data for 29 compounds are collected here from patent US20240150356A1, “Pyrimidine amide compounds and use thereof” (ALPHALA CO., LTD., priority 2019, published 2024).

SMILES strings stand for the structures. Bounds are passed on as bounds.

For one assay, the system named is Hep3B cells (hepatocellular carcinoma cell line). As to the kind of experiment: In vitro MTS cell viability assay (NCI-60 methodology), Hep3B. It is filed as cell-based. The following applies: Homo sapiens, 48 h, Table 1, MTS, 2 days drug incubation, 50% reduction vs time zero, read-out: Hep3B LC50. The essentials:
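Following NCI-60 method, MTS viability of Hep3B measured 24 h after plating (time zero) and after a further 2-day exposure to five concentrations (2-fold series). LC50 defined where [(Ti−Tz)/Tz]×100 = −50.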
In general terms: Formazan colour is commonly taken as a measure of viable cells.
By LC50 is commonly meant the concentration that kills 50% of the test population. As for `CC(C)(C)c1ccc(-c2nc(NC(=O)c3ccc([N+](=O)[O-])s3)c3cnn(C(C)(C)C)c3n2)cc1` [Compound 1-25, N-(1-(tert-butyl)-6-(4-(tert-butyl)phenyl)-1H-pyrazolo[3,4,d]pyrimidin-4-yl)-5-nitrothiophene-2-carboxamide], the LC50 was found to be 4.11 µM. Take `Cn1ncc2c(NC(=O)c3ccc([N+](=O)[O-])s3)nc(C#Cc3ccc(OC(F)(F)F)cc3)nc21` [Compound 1-14, N-(1-methyl-6-((4-(trifluoromethoxy)phenyl)ethynyl)-1H-pyrazolo[3,4,d]pyrimidin-4-yl)-5-nitrothiophene-2-carboxamide]: the LC50 was 1.67 µM.

Consider `COc1ccc(/C=C/c2nc(NC(=O)c3ccc([N+](=O)[O-])s3)c3cnn(C)c3n2)cc1` [Compound 1-12, (E)-N-(6-(4-methoxystyryl)-1-methy-1H-pyrazolo[3,4-d]pyrimidin-4-yl)-5-nitrothiophene-2-carboxamide], for which the LC50 is more than 5 µM.

The same assay, now with this note: Homo sapiens, 48 h, Table 4, MTS, 2 days drug incubation, 50% reduction vs time zero, read-out: Hep3B LC50.
Regarding `Cc1csc2c(NC(=O)c3ccc([N+](=O)[O-])s3)nc(-c3cccc(C(F)(F)F)c3)nc12` [Compound 4-3, N-(7-methyl-2-(3-(trifluoromethyl)phenyl)thieno[3,2-1]pyrimidin-4-yl)-5-nitrothiophene-2-carboxamide], the median lethal concentration (LC50) is 0.88 µM. Consider `Cc1csc2c(NC(=O)c3ccc([N+](=O)[O-])s3)nc(Oc3ccc(C(C)(C)C)cc3)nc12` [Compound 4-12, N-(2-(4-(tert-butyl)phenoxy)-7-methylthieno[3,2-d]pyrimidin-4-yl)-5-nitrothiophene-2-carboxamide], for which the LC50 amounted to 1.34 µM.

The assay is the same for the next values; noted with them: Homo sapiens, 48 h, Table 5, MTS, 2 days drug incubation, 50% reduction vs time zero, read-out: Hep3B LC50.
For the compound `CCOCCOc1ccc(-c2nc(NC(=O)c3ccc([N+](=O)[O-])s3)c3cnn(-c4ccccc4)c3n2)cn1` [Compound 5-55, N-(6-(6-(2-ethoxyethoxy)pyridin-3-yl)-1-phenyl-1H-pyrazolo[3,4-d]pyrimidin-4-yl)-5-nitrothiophene-2-carboxamide], the median lethal concentration (LC50) worked out at 0.49 µM. Same read-out and setting: for `O=C(Nc1nc(N2CCOCC2)nc2c1cnn2-c1ccccc1)c1ccc([N+](=O)[O-])s1` [Compound 5-7, N-(6-morpholino-1-phenyl-1H-pyrazolo[3,4-d]pyrimidin-4-yl)-5-nitrothiophene-2-carboxamide] the value was 1.46 µM; for `O=C(Nc1nc(Sc2ccc(Cl)cc2)nc2c1cnn2-c1ccccc1)c1ccc([N+](=O)[O-])s1` [Compound 5-16], 0.36 µM. As to `N#C[C@@H]1CCN(c2nc(NC(=O)c3ccc([N+](=O)[O-])s3)c3cnn(-c4ccccc4)c3n2)C1` [Compound 5-5, (R)—N-(6-(3-cyanopyrrolidin-1-yl)-1-phenyl-1H-pyrazolo[3,4-d]pyrimidin-4-yl)-5-nitrothiophene-2-carboxamide], the 50% lethal concentration (LC50) stood at 0.5 µM.

The assay is the same for the next values; noted with them: Homo sapiens, 48 h, Table 6, MTS, 2 days drug incubation, 50% reduction vs time zero, read-out: Hep3B LC50.
For the compound `CC(C)(C)c1ccc(-n2ncc3c(NC(=O)c4ccc([N+](=O)[O-])s4)nc(N4CCC(F)(F)CC4)nc32)cc1` [Compound 6-67, N-(1(4-(tert-butyl)phenyl)-6-(4,4-difluoropiperidin-1-yl)-1H-pyrazolo[3,4-d]pyrimidin-4-yl)-5-nitrothiophene-2-carboxamide], the median lethal concentration (LC50) stood at 0.73 µM.

As for `COc1ccc(-n2ncc3c(NC(=O)c4ccc([N+](=O)[O-])s4)nc(-c4ccc(Cl)cc4F)nc32)cc1` [Compound 6-22, N-(6-(4-chloro-2-fluorophenyl)-1-(4-methoxyphenyl)-1H-pyrazolo[3,4-d]pyrimidin-4-yl)-5-nitrothiophene-2-carboxamide], the LC50 was determined as 0.38 µM.

As for `CC(C)(C)c1ccc(-n2ncc3c(NC(=O)c4ccc([N+](=O)[O-])s4)nc(N4CC(F)(F)C4)nc32)cc1` [Compound 6-65, N-(1-(4-(tert-butyl)phenyl)-6-(3,3-difluoroazetidin-1-yl)-1H-pyrazolo[3,4-d]pyrimidin-4-yl)-5-nitrothiophene-2-carboxamide], the LC50 was determined as 0.32 µM. As to `COc1ccc(-n2ncc3c(NC(=O)c4ccc([N+](=O)[O-])s4)nc(NC4CCCCC4)nc32)cc1` [Compound 6-15, N-(6-(cyclohexylamino)-1-(4-methoxyphenyl)-1H-pyrazolo[3,4-d]pyrimidin-4-yl)-5-nitrothiophene-2-carboxamide], the 50% lethal concentration (LC50) is more than 1.25 µM. As to `Cc1ccc(-n2ncc3c(NC(=O)c4ccc([N+](=O)[O-])s4)nc(N4CCC[C@H]4CO)nc32)cc1` [Compound 6-3, (S)—N-(6-(2-(hydroxymethyl)pyrrolidin-1-yl)-1-(p-tolyl)-1H-pyrazolo[3,4-d]pyrimidin-4-yl)-5-nitrothiophene-2-carboxamide], the LC50 came out at 0.87 µM. As to `Cc1ccn(-c2nc(NC(=O)c3ccc([N+](=O)[O-])s3)c3cnn(-c4ccc(F)cc4)c3n2)n1` [Compound 6-108], the LC50 came to 0.09 µM. Take `COCCN(C)c1ccc(-c2nc(NC(=O)c3ccc([N+](=O)[O-])s3)c3cnn(-c4cccc(F)c4)c3n2)cn1` [Compound 6-93]: the median lethal concentration (LC50) worked out at 0.4 µM. On to `O=C(Nc1nc(-c2ccc(OCCO)nc2)nc2c1cnn2-c1ccc(F)cc1)c1ccc([N+](=O)[O-])s1` [Compound 6-134, N-(1-(4-fluorophenyl)-6-(6-(2-hydroxyethoxy)pyridin-3-yl)-1H-pyrazolo[3,4,d]pyrimidin-4-yl)-5-nitrothiophene-2-carboxamide], for which the 50% lethal concentration (LC50) was 0.22 µM. For the compound `O=C(Nc1nc(-c2ccc(F)cc2)nc2c1cnn2-c1ccc(Cl)cc1)c1ccc([N+](=O)[O-])s1` [Compound 6-48, N-(1-(4-chlorophenyl)-6-(4-fluorophenyl)-1H-pyrazolo[3,4-d]pyrimidin-4-yl)-5-nitrothiophene-2-carboxamide], the LC50 is 0.18 µM.

Staying with this assay, now noted: Homo sapiens, 48 h, Table 7, MTS, 2 days drug incubation, 50% reduction vs time zero, read-out: Hep3B LC50.
`O=C(Nc1nc(-c2ccc(OC(F)(F)F)cc2)nc2c1cnn2-c1ccc(C(F)(F)F)cn1)c1ccc([N+](=O)[O-])s1` [Compound 7-5, 5-nitro-N-(6-(4-(trifluoromethoxy)phenyl)-1-(5-(trifluoromethyl)pyridin-2-yl)-1H-pyrazolo[3,4-d]pyrimidin-4-yl)thiophene-2-carboxamide]: the median lethal concentration (LC50) is 0.31 µM.

Still in this assay, the particulars now being: Homo sapiens, 48 h, Table 8, MTS, 2 days drug incubation, 50% reduction vs time zero, read-out: Hep3B LC50.
Regarding `O=C(Nc1nc(-c2ccc(F)nc2)nc2c1cnn2C1CCCC1)c1ccc([N+](=O)[O-])s1` [Compound 8-8, N-(1-cyclopentyl-6-(6-fluoropyridin-3-yl)-1H-pyrazolo[3,4-d]pyrimidin-4-yl)-5-nitrothiophene-2-carboxamide], the LC50 stood at 1.17 µM. Turning to `C[C@@H]1C[C@@H](n2ncc3c(NC(=O)c4ccc([N+](=O)[O-])s4)nc(-c4ccc(F)nc4)nc32)CC(C)(C)C1` [Compound 8-14, N-(6-(6-fluoropyridin-3-yl)-1-((1R,5S)-3,3,5-trimethylcyclohexyl)-1H-pyrazolo[3,4-d]pyrimidin-4-yl)-5-nitrothiophene-2-carboxamide], the LC50 amounted to 0.62 µM.

The assay is the same for the next values; noted with them: Homo sapiens, 48 h, Table 9, MTS, 2 days drug incubation, 50% reduction vs time zero, read-out: Hep3B LC50.
As for `COCCOC(=O)N1CCC(n2ncc3c(NC(=O)c4ccc([N+](=O)[O-])s4)nc(-c4ccc(Cl)cc4)nc32)CC1` [Compound 9-12, 2-methoxyethyl 4-(6-(4-chlorophenyl)4-(5-nitrothiophene-2-carboxamido)-1H-pyrazolo[3,4-d]pyrimidin-1-yl)piperidine-1-carboxylate], the median lethal concentration (LC50) came to 1.86 µM.

The same assay, now with this note: Homo sapiens, 48 h, Table 10, MTS, 2 days drug incubation, 50% reduction vs time zero, read-out: Hep3B LC50.
For the compound `CC(C)(C)c1ccc(-c2nc(NC(=O)c3ccc([N+](=O)[O-])s3)c3cnn(C4CCCCC4)c3n2)cc1` [Compound 10-35, N-(6-(4-(tert-butyl)phenyl)-1-cyclohexyl-1H-pyrazolo[3,4,d]pyrimidin-4-yl)-5-nitrothiophene-2-carboxamide], the LC50 is 1.33 µM. `COc1ccc(-c2nc(NC(=O)c3ccc([N+](=O)[O-])s3)c3cnn(C4CCCCC4)c3n2)cc1OC` [Compound 10-48, N-(1-cyclohexyl-6-(3,4-dimethoxyphenyl)-1H-pyrazolo[3,4-d]pyrimidin-4-yl)-5-nitrothiophene-2-carboxamide]: the LC50 is 0.97 µM. Same read-out and setting: for `N#Cc1ccc(-c2nc(NC(=O)c3ccc([N+](=O)[O-])s3)c3cnn(C4CCCCC4)c3n2)cc1` [Compound 10-20, N-(6-(4-cyanophenyl)-1-cyclohexyl-1H-pyrazolo[3,4-d]pyrimidin-4-yl)-5-nitrothiophene-2-carboxamide] the value was 1.2 µM. On to `CC1CC(C)CC(n2ncc3c(NC(=O)c4ccc([N+](=O)[O-])s4)nc(-c4ccc(Cl)nc4)nc32)C1` (centres unmarked) [Compound 10-70, N-(6-(6-chloropyridin-3-yl)-1-(3,5-dimethylcyclohexyl)-1H-pyrazolo[3,4-d]pyrimidin-4-yl)-5-nitrothiophene-2-carboxamide], for which the LC50 came out at 0.96 µM.

In the case of `O=C(Nc1nc(-c2ccc(C(F)(F)F)cc2)nc2c1cnn2C1CCC(F)(F)CC1)c1ccc([N+](=O)[O-])s1` [Compound 10-58, N-(1-(4,4-difluorocyclohexyl)-6-(4-(trifluoromethyl)phenyl)-1H-pyrazolo[3,4-d]pyrimidin-4-yl)-5-nitrothiophene-2-carboxamide], the LC50 amounted to 0.61 µM.

For `COCCOc1ccc(-c2nc(NC(=O)c3ccc([N+](=O)[O-])s3)c3cnn(C4CCCCC4)c3n2)cn1` [Compound 10-51, N-(1-cyclohexyl-6-(6-(2-methoxyethoxy)pyridin-3-yl)-1H-pyrazolo[3,4-d]pyrimidin-4-yl)-5-nitrothiophene-2-carboxamide], the LC50 is 0.96 µM. On to `O=C(Nc1nc(-c2ccnc(F)c2)nc2c1cnn2C1CCCCC1)c1ccc([N+](=O)[O-])s1` [Compound 10-15, N-(1-cyclohexyl-6-(2-fluoropyridin-4-yl)-1H-pyrazolo[3,4-d]pyrimidin-4-yl)-5-nitrothiophene-2-carboxamide], for which the 50% lethal concentration (LC50) amounted to 1.17 µM.
